Data on ten molecules can be found in ChEMBL document CHEMBL1201862, “PubChem BioAssay data set” (2004).

Some test systems named below: PC-3; A549; A498; TK-10; SNB-19; K562; HCT-116; NCI/ADR-RES; SF-539; KM12; OVCAR-8; SNB-75; T47D; NCI-H23; Malme-3M; NCI-H460; HL-60; MDA-MB-435; OVCAR-4; CAKI-1.
Common to all, as to experiment: growth of human tumour cells (NCI), 48 h

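Compound exposure: 48 hours, 5 concentrations, 96-well plates. GI50: concentration for 50% inhibition of growth.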 The source made the active and inactive calls. Cut-off read from the data, not from the text of the source: active = GI50 up to about 1.1 µM and inactive = higher.

Regarding `O=C(O)c1cc2ccc3ccccc3c2oc1=O`, the GI50 with PC-3 was > 100 µM (inactive); in the experiment with A549, > 100 µM (inactive); with A498, 54.2 µM (inactive); in the experiment on TK-10, > 100 µM (inactive); in the experiment with SNB-19 it was > 100 µM (inactive); in the experiment on K562 it was > 100 µM (inactive). Besides, the GI50 in the experiment on HCT-116, with NCI/ADR-RES, in the experiment with SF-539, with KM12, with OVCAR-8 and in the experiment with SNB-75 was > 100 µM (inactive) in each case. The GI50 in the experiment with T47D, in the experiment on NCI-H23, in the experiment with Malme-3M, in the experiment with NCI-H460, with HL-60 and in the experiment with MDA-MB-435 was > 100 µM (inactive) in each case. In addition, the figures for the GI50 with OVCAR-4 and in the experiment with CAKI-1 were > 100 µM (inactive) and > 10 µM (inactive), respectively.

As to `COC(=O)c1c(O)ccc2c1c1c(n2C)C(=O)c2ccccc2C1=O`, the GI50 in the experiment with PC-3 is 23.3 µM (inactive); in the experiment on A549, 14.5 µM (inactive); with A498, > 100 µM (inactive); in the experiment with TK-10, 26.7 µM (inactive); with SNB-19, 16.3 µM (inactive); in the experiment with K562, > 100 µM (inactive). The GI50 in the experiment on HCT-116 is 12.2 µM (inactive); in the experiment with NCI/ADR-RES it was 43.7 µM (inactive); in the experiment on SF-539, 17.6 µM (inactive); with KM12 it was 57.7 µM (inactive); in the experiment on OVCAR-8, 17.8 µM (inactive); in the experiment on SNB-75 it was 2.48 µM (inactive). The GI50 in the experiment with T47D is 3.42 µM (inactive); in the experiment with NCI-H23, 19.7 µM (inactive); in the experiment with Malme-3M, 42.5 µM (inactive); in the experiment with NCI-H460, 8 µM (inactive); with HL-60 it was > 100 µM (inactive); in the experiment on MDA-MB-435 it was 33 µM (inactive). Further, the results for the GI50 in the experiment on OVCAR-4 and in the experiment with CAKI-1 were 13.6 µM (inactive) and 7.69 µM (inactive), respectively.

`CC(C)NC(=O)OCc1c(COC(=O)NC(C)C)c(-c2cc[n+](COC(=O)C3CC3)cc2)n2c1CCC2`: the GI50 with PC-3 was > 100 µM (inactive); in the experiment on A549 it was > 100 µM (inactive); in the experiment on A498, 79.3 µM (inactive); with TK-10, > 100 µM (inactive); with SNB-19, > 100 µM (inactive); in the experiment with K562, > 100 µM (inactive). In addition, the GI50 in the experiment with HCT-116 was > 100 µM (inactive); with NCI/ADR-RES it was > 100 µM (inactive); in the experiment on SF-539, 42.2 µM (inactive); in the experiment on KM12 it was > 100 µM (inactive); with OVCAR-8, > 100 µM (inactive); with SNB-75 it was > 100 µM (inactive). Moreover, the GI50 with T47D was > 100 µM (inactive); in the experiment on NCI-H23 it was > 100 µM (inactive); with Malme-3M, > 100 µM (inactive); with NCI-H460, > 100 µM (inactive); in the experiment with HL-60 it was 86.7 µM (inactive); in the experiment with MDA-MB-435, > 100 µM (inactive). The GI50 in the experiment with OVCAR-4 and in the experiment with CAKI-1 was > 100 µM (inactive) throughout.

Consider `COC(=O)c1ccccc1C1CN=NC12Cc1ccc3c(c1C2=O)CCC3` (configuration not stated), for which the GI50 with PC-3 is 49.3 µM (inactive); in the experiment with A549, > 100 µM (inactive); in the experiment on A498, 55.2 µM (inactive); in the experiment with TK-10 it was > 100 µM (inactive); with SNB-19 it was 65 µM (inactive); in the experiment on K562, 7.23 µM (inactive). The GI50 was 39.3 µM (inactive) in the experiment with HCT-116; 19.5 µM (inactive) with NCI/ADR-RES; > 100 µM (inactive) in the experiment on SF-539; 42.1 µM (inactive) in the experiment on KM12; 94.4 µM (inactive) with OVCAR-8; 58.6 µM (inactive) in the experiment on SNB-75. Further, the GI50 is 19.2 µM (inactive) in the experiment on T47D; 19.2 µM (inactive) with NCI-H23; 21.8 µM (inactive) in the experiment with Malme-3M; 70 µM (inactive) in the experiment with NCI-H460; 19.6 µM (inactive) in the experiment with HL-60; > 100 µM (inactive) in the experiment with MDA-MB-435. The GI50 in the experiment with OVCAR-4 and with CAKI-1 was > 100 µM (inactive) each time.

Take `Cc1ccc(/N=C2\OP(=O)(Nc3ccc(C)cc3)Oc3ccccc32)cc1` (configuration not stated): the GI50 in the experiment on PC-3 is > 100 µM (inactive); with A549, > 100 µM (inactive); with A498 it was > 100 µM (inactive); with TK-10, > 100 µM (inactive); with SNB-19, > 100 µM (inactive); in the experiment on K562 it was 50.6 µM (inactive). Besides, the GI50 was 87.9 µM (inactive) in the experiment on HCT-116; > 100 µM (inactive) with NCI/ADR-RES; > 100 µM (inactive) in the experiment with SF-539; > 100 µM (inactive) with KM12; > 100 µM (inactive) in the experiment on OVCAR-8; 36.4 µM (inactive) with SNB-75. Further, the GI50 in the experiment with T47D, with NCI-H23, in the experiment with Malme-3M, in the experiment on NCI-H460, in the experiment with HL-60 and in the experiment on MDA-MB-435 was > 100 µM (inactive) in each case. Besides, the GI50 with OVCAR-4 and in the experiment on CAKI-1 was > 100 µM (inactive) each time.

On to `O=C(c1cc(Cl)cc(Cl)c1)N(C(=O)N1CCN(c2ccccc2)CC1)c1ccccc1`, for which the GI50 is 25.1 µM (inactive) with PC-3; 23.2 µM (inactive) with A549; 21.2 µM (inactive) in the experiment on A498; 54.6 µM (inactive) in the experiment on TK-10; 53.3 µM (inactive) in the experiment on SNB-19; 10.5 µM (inactive) in the experiment with K562. Also, the GI50 is 24.3 µM (inactive) with HCT-116; 25.6 µM (inactive) in the experiment on NCI/ADR-RES; 41 µM (inactive) with SF-539; 23.5 µM (inactive) in the experiment on KM12; 53.5 µM (inactive) in the experiment on OVCAR-8; > 100 µM (inactive) in the experiment on SNB-75. Further, the GI50 in the experiment on T47D was 18.1 µM (inactive); in the experiment with NCI-H23 it was 41.1 µM (inactive); in the experiment with Malme-3M it was 47 µM (inactive); in the experiment on NCI-H460 it was 29.7 µM (inactive); with HL-60, 17.2 µM (inactive); in the experiment with MDA-MB-435 it was 11.1 µM (inactive). Also, the results for the GI50 in the experiment on OVCAR-4 and with CAKI-1 were 23 µM (inactive) and 33.1 µM (inactive), respectively.

With `Brc1cccc(Nc2nc(-c3cccs3)nc3ccc(Br)cc23)c1`, the GI50 in the experiment on PC-3 was 31.9 µM (inactive); with A549 it was 29.5 µM (inactive); with A498 it was 31.7 µM (inactive); with TK-10, 24.7 µM (inactive); with SNB-19 it was 31.1 µM (inactive); in the experiment with K562, 38.2 µM (inactive). Moreover, the GI50 in the experiment with HCT-116 was 30.5 µM (inactive); in the experiment on NCI/ADR-RES it was 30.7 µM (inactive); in the experiment on SF-539, 31.8 µM (inactive); in the experiment on KM12 it was 18 µM (inactive); in the experiment on OVCAR-8, 47 µM (inactive); with SNB-75, 41.2 µM (inactive). For the same molecule, the GI50 with T47D is 9.89 µM (inactive); in the experiment with NCI-H23 it was 36.9 µM (inactive); in the experiment with Malme-3M, 25.4 µM (inactive); with NCI-H460, 21.7 µM (inactive); in the experiment on HL-60 it was 1.28 µM (inactive); in the experiment on MDA-MB-435 it was 16.6 µM (inactive). The figures for the GI50 with OVCAR-4 and in the experiment with CAKI-1 were 27.8 µM (inactive) and 23.1 µM (inactive), respectively.

For the molecule `CCOC(=O)CCC(NC(=O)Cc1ccc(Nc2nc3ccccc3nc2-c2ccccc2)cc1)C(=O)OCC` (configuration not stated), the GI50 in the experiment on PC-3 was 17.4 µM (inactive); with A549 it was 79.6 µM (inactive); in the experiment with A498, 37 µM (inactive); in the experiment on TK-10 it was 14 µM (inactive); in the experiment with SNB-19, 24.2 µM (inactive); in the experiment with K562 it was > 100 µM (inactive). Further, the GI50 is > 100 µM (inactive) with HCT-116; 50.5 µM (inactive) with NCI/ADR-RES; 20 µM (inactive) in the experiment on SF-539; > 100 µM (inactive) with KM12; 25.2 µM (inactive) in the experiment with OVCAR-8; 8.79 µM (inactive) with SNB-75. The GI50 is > 100 µM (inactive) in the experiment on T47D; 20.7 µM (inactive) in the experiment on NCI-H23; 33 µM (inactive) in the experiment on Malme-3M; > 100 µM (inactive) with NCI-H460; > 100 µM (inactive) in the experiment on HL-60; > 100 µM (inactive) with MDA-MB-435. Besides, the GI50 with OVCAR-4 is 6.79 µM (inactive); in the experiment on CAKI-1, > 100 µM (inactive).

As to `CC1OC2=N[C@@H]1C(=O)N[C@@H](C(C)C)C1=N[C@H](C(=O)N[C@@H](C(C)C)C3=N[C@H](C(=O)N[C@@H](C(C)C)C4=N[C@H](C(=O)N[C@H]2C(C)C)C(C)O4)C(C)O3)C(C)O1` (some centres not stated), the GI50 in the experiment on PC-3, in the experiment on A498, with TK-10, in the experiment with SNB-19, in the experiment on K562 and in the experiment on NCI/ADR-RES was > 10 µM (inactive) throughout. Also, the GI50 in the experiment with SF-539, in the experiment with KM12, with OVCAR-8, with SNB-75, with T47D and with NCI-H23 was > 10 µM (inactive) each time. Also, the GI50 in the experiment on Malme-3M, in the experiment with NCI-H460, in the experiment on HL-60, with MDA-MB-435, in the experiment with OVCAR-4 and in the experiment on CAKI-1 was > 10 µM (inactive) each time.

Regarding `COc1cc(S(=O)(=O)Nc2ccc(-c3csc(N4C(=O)CSC4c4ccccc4)n3)cc2)ccc1Cl` (configuration not stated), the GI50 was 41.3 µM (inactive) with PC-3; 0.785 µM (active) in the experiment on A549; 0.116 µM (active) in the experiment on A498; 13.7 µM (inactive) in the experiment on SNB-19; 39.7 µM (inactive) in the experiment on K562; 54 µM (inactive) in the experiment with HCT-116. In addition, the GI50 in the experiment with NCI/ADR-RES is > 100 µM (inactive); in the experiment on SF-539, 80.7 µM (inactive); in the experiment with KM12, 30.5 µM (inactive); with OVCAR-8, > 100 µM (inactive); in the experiment on SNB-75, 67.3 µM (inactive); with T47D, 16.3 µM (inactive). Also, the GI50 with NCI-H23 is > 100 µM (inactive); in the experiment on Malme-3M, > 100 µM (inactive); in the experiment on NCI-H460 it was 31.4 µM (inactive); in the experiment on HL-60 it was 20.8 µM (inactive); in the experiment with MDA-MB-435, 43.1 µM (inactive); with OVCAR-4, 29.9 µM (inactive). In addition, in the experiment on CAKI-1, the GI50 was > 100 µM (inactive).
